From patent US11052082B2 (priority 2012, dated 2021)
Entries after “also recorded” stand apart in the source; their conditions may differ. Counter-ions that a name gives are not always drawn. Peptide text beside a SMILES is read from it. * marks the point of attachment. Cbz = O=C(OCc1ccccc1)*; CH2F = FC*

Key:
[1] = Tolerability (body weight) in U87MG xenograft mice; settings: D,L-methadone 60 to 240 mg/kg/d
[2] = system: apoptosis pathways in glioblastoma-initiating stem cells; test: Western blot of apoptosis pathways in glioblastoma-initiating stem cells; format: cell-based; settings: 3 μg/mL D,L-methadone + 0.1 μg/mL doxorubicin; 144 h
[3] = system: pre-B-ALL-SCID; test: Apoptosis induction in xenograft-derived BCP-ALL cells; format: cell-based, human; settings: therapeutic concentrations of D,L-methadone alone; moderate opioid-receptor level
[4] = system: caspases, PARP, XIAP, Bcl-xL in glioblastoma cells A172; test: Western blot of apoptosis effectors in A172; format: cell-based
[5] = system: U87MG glioblastoma; test: U87MG glioblastoma xenograft tumour growth; format: in vivo, nude-mice; settings: days 19 to 33
[6] = system: human T cell leukemia, human acute myeloid leukemia, human B cell precursor leukemia, human B cell leukemia; test: Apoptosis in different leukemia cells, D,L-methadone plus cisplatin; format: cell-based
[7] = system: glioblastoma cell line A172; test: Doxorubicin uptake and efflux, A172; format: cell-based; settings: 0.3 μg/mL doxorubicin
[8] = Tolerability (body weight, maximum tolerated dose) in ALL-SCID6 xenograft mice; settings: same regimen as tumour growth study
[9] = system: caspase-8, -9, -3, PARP, XIAP, Bcl-xL in JIMT-1 cells; test: Western blot of apoptosis effectors in JIMT-1; format: cell-based, human; settings: D,L-methadone 10, 3, 1 μg/mL + 0.015 μg/mL doxorubicin; 96 h
[10] = system: BCP-ALL-cell line Tanoue; test: Doxorubicin uptake and efflux, Tanoue; format: cell-based, human
[11] = system: leukemia cancer cells (Nalm-6), pancreatic cancer cells (Colo357), ovarian cancer cells (A2780); test: Sensitization for etoposide or cisplatin treatment; format: cell-based; settings: 0.03 μg/mL etoposide or 0.3 μg/mL cisplatin; D,L-methadone 10, 3, 1 μg/mL; 120 to 144 h
[12] = system: BCP-ALL-cell lines (Tanoue, Reh, Nalm6); test: Apoptosis induction in BCP-ALL-cell lines; format: cell-based, human; settings: D,L-methadone alone; 120 h
[13] = system: BCP-ALL-cell line Tanoue; format: cell-based, human; settings: for effect on apoptosis rates of combination treatment with D,L-methadone and doxorubicin: 3 μg/mL D,L-methadone + 0.06 μg/mL doxorubicin, 60 μg/mL naloxone, 200 μM IBMX or PTX
[14] = system: glioblastoma cells A172; test: Apoptosis / cell death in glioblastoma cells A172; format: cell-based; settings: for effect on apoptosis induced by combination treatment with D,L-methadone and doxorubicin: 100 μg/mL naloxone or 25 μM IBMX, 3 μg/mL D,L-methadone, 0.3 μg/mL doxorubicin, 120 h
[15] = system: Pancreatic cancer cells Colo 357; test: Cell death in pancreatic cancer cells; format: cell-based
[16] = system: A2780 ovarian cancer cells; test: Cell death in A2780 ovarian cancer cells; format: cell-based; settings: 2 μg/mL cisplatin alone; 144 h
[17] = system: opioid receptor on promyelocytic leukemia cell line HL60; test: Opioid receptor expression, HL60; format: cell-based, human; settings: 0.3 μg/mL cisplatin; 24 h
Description: (§1) Cells were washed in PBS supplemented with 1% FCS, centrifuged and resuspended in PBS/1% FCS containing naloxone-fluoresceine (0.05 mM, Invitrogen) (Hedin et al., 1997). After 30 min of incubation at RT, the cells were washed twice with PBS/1% FCS, centrifuged and resuspended in icecold PBS/1% FCS. Flowcytometry analysis was performed using FACSCalibur (BD, Heidelberg, Germany).
After staining of cisplatin-treated (+Cisplatin) and untreated cells (−Cisplatin) with naloxone-fluoresceine relative fluorescence intensities were determined flowcytometrically. 2.1-fold increase in opioid receptor expression is shown after subtracting the cells autofluorescence.

[18] = system: opioid-receptors on BCP-ALL-cell line Tanoue; test: Flow cytometric cell surface opioid-receptor expression, Tanoue; format: cell-based, human; settings: 0.06 μg/mL doxorubicin; 96 h
Description: as §1
(A) Doxorubicin enhances opioid receptor expression on the cells' surface. The BCP-ALL-cell line Tanoue was treated for 96 h with 0.06 μg/mL doxorubicin. After staining of doxorubicin-treated (+Doxo) and untreated cells (−Doxo) with naloxone-fluoresceine relative fluorescence intensities were determined flowcytometrically. X-fold increase in opioid receptor expression is shown after subtracting the cells' autofluorescence (−Doxo) and doxorubicin fluorescence (+Doxo).

[19] = Serum concentrations in ALL-SCID6 xenograft mice; settings: male, NOD/SCID/IL2ry null (NSG), mouse, in vivo, 3 mg/kg
[20] = system: Trastuzumab resistant breast cancer cells JIMT-1; test: Apoptosis / cell death in JIMT-1 breast cancer cells; format: cell-based, human
[21] = system: ALL-SCID6 xenograft; test: Patient-derived ALL-xenograft tumour growth; format: in vivo, NOD/SCID/IL2ry null (NSG) mice; settings: D,L-methadone orally day 1-76, 20 up to 120 mg/kg/day; doxorubicin 3 mg/kg i.v. day 46, 53, 60, 76
[22] = system: opioid receptor on glioblastoma cell line A172; test: Opioid receptor expression, A172; format: cell-based; settings: 0.1 μg/mL doxorubicin; 106 h
Description: as §1
(A) The glioblastoma cell line A172 was treated for 106 h with 0.1 μg/mL doxorubicin. After staining of doxorubicin-treated (doxorubicin) and untreated cells with naloxone-fluorescein (naloxone) relative fluorescence intensities were determined flowcytometrically. (B) Tabular summary of untreated and doxorubicin control cells, naloxone treated cells, whereas D(naloxone-control) represents the median fluorescence intensities after subtracting the cells' autofluorescence (control).

[23] = system: glioblastoma cells; test: Apoptosis / cell death in glioblastoma cells (opioid comparison, naloxone); format: cell-based; settings: 60 μg/mL naloxone, 3 μg/mL D,L-methadone, 0.1 μg/mL doxorubicin; 120 h and 144 h
[24] = system: caspase-2, caspase-9, caspase-3, PARP, XIAP, Bcl-xL in BCP-ALL-cell line Tanoue; test: Western blot analysis of apoptosis effectors in Tanoue; format: cell-based, human; settings: 60 μg/mL naloxone; 96 h

## CCC(=O)C(CC(C)N(C)C)(c1ccccc1)c1ccccc1 (racemic) [D,L-methadone, D,L-methadone hydrochloride]
[1]
  body weight loss: 9%
[2]
  activation of apoptosis pathways: reversed deficient activation of apoptosis pathways by doxorubicin
[3]
  cell death induction: only be slightly killed
[4]; D,L-methadone 3, 1 μg/mL + 0.1 μg/mL doxorubicin, 144 h
  caspases activation: restored deficient caspases activation by doxorubicin
[5]; D,L-methadone orally daily, 60 to 120 to 240 mg/kg/d bid
  optimum T/C value: 49%
[5]
  tumour size vs vehicle: significantly reduced tumour size
[6]; D,L-methadone alone (−CDDP)
  cell death induction: only be killed slightly
[7]
  doxorubicin efflux: inhibit the efflux
[7]; 10 μg/mL D,L-methadone
  doxorubicin uptake: enhance the uptake
[8]
  body weight changes: −8%
[9]
  caspases activation: restored deficient caspases activation by doxorubicin
[10]; 8 h and 24 h after removing doxorubicin
  doxorubicin efflux: reduced the doxorubicin efflux strongly
[10]; co-incubation with 0.3 μg/mL doxorubicin, 24 h (0 h)
  doxorubicin uptake: enhanced doxorubicin concentration in the cells
[11]
  sensitization for etoposide or cisplatin treatment: sensitizes
[12]
  cell death induction: only be killed slightly

## CC(C)Cn1c(=O)n(C)c(=O)c2[nH]cnc21 [IBMX, 3-Isobutyl-1-methylxanthine]
[13]; 200 μM IBMX, 0.06 μg/mL doxorubicin, 96 h
  effect on doxorubicin-induced apoptosis: decreased doxorubicin-induced apoptosis
[13]; 96 h
  effect on apoptosis rates of combination treatment with D,L-methadone and doxorubicin: strongly reduced the apoptosis rates
[14]; 144 h
  effect on apoptosis induced by combination treatment with D,L-methadone and doxorubicin: strongly reduced apoptosis induction

## N.N.[Cl][Pt][Cl] [cisplatin]
[15]; 10 μg/mL alone, 120 h
  cell death: 60%
[15]; 10 μg/mL cisplatin alone, 144 h
  cell death: 70%
[16]
  cell death: 90%
[17]
  increase in opioid receptor expression: 2.1 fold

## COc1cccc2c1C(=O)c1c(O)c3c(c(O)c1C2=O)C[C@@](O)(C(=O)CO)C[C@@H]3O[C@H]1C[C@H](N)[C@H](O)[C@H](C)O1 [doxorubicin]
[18]
  opioid-receptor expression: strongly increased opioid-receptor expression
[19]
  serum concentrations of doxorubicin: 156 to 198 ng/mL
[20]; 0.1 μg/mL doxorubicin alone, 120 h
  cell death: 70%
[21]
  tumour growth inhibition: significant inhibition of tumour growth
[8]
  body weight changes: −4%
[22]
  increase in opioid receptor expression: 6 fold
[14]; 1 μg/mL doxorubicin alone, 144 h
  cell death: 80%

## C=CCN1CC[C@]23c4c5ccc(O)c4O[C@H]2C(=O)CC[C@@]3(O)[C@H]1C5 [naloxone]
[20]; 100 μg/mL naloxone, 10 μg/mL D,L-methadone, 0.01 μg/mL doxorubicin, 96 h
  effect on apoptosis induced by combination treatment with D,L-methadone and doxorubicin: strongly reduced apoptosis; also recorded: strongly inhibits apoptosis induction
[23]
  effect on apoptosis rates of combination treatment with D,L-methadone and doxorubicin: strongly reduced the apoptosis rates
[4]; 100 μg/mL naloxone, 120 h
  effect on activation of caspase-9, caspase-3 and cleavage of PARP by combination treatment: strongly reduced
[24]
  effect on caspase activation and PARP cleavage by D,L-methadone in addition to doxorubicin: drastically reduced the activation of caspase-9, caspase-2 and caspase-3
[14]; 144 h
  effect on apoptosis induced by combination treatment with D,L-methadone and doxorubicin: strongly reduced apoptosis

## CC(C)[C@H](NC(=O)OCc1ccccc1)C(=O)N[C@@H](C)C(=O)N[C@@H](CC(=O)O)C(=O)CF [zVAD.fmk, benzoylcarbonyl-Val-Ala-Asp-fluoromethylketone] (Cbz-Val-Ala-Asp-CH2F)
[13]; 50 μM zVAD.fmk pre-incubation, 0.06 μg/mL doxorubicin, 120 h
  effect on cell death after combination treatment with D,L-methadone and doxorubicin: strongly decreased cell death
[20]; 50 μmol/L zVAD.fmk, 0.015 μg/mL doxorubicin, 96 h, 120 h
  effect on apoptosis induced by cotreatment of D,L-methadone and doxorubicin: blocks apoptosis
[15]; 50 μmol/L zVAD.fmk, cisplatin 0.7 or 0.5 μg/mL
  effect on apoptosis induced by D,L-methadone in addition to cisplatin: almost completely inhibited apoptosis
[15]; 50 μmol/L zVAD.fmk, oxaliplatin 3 or 2 μg/mL
  effect on apoptosis induced by D,L-methadone in addition to oxaliplatin: almost completely inhibited apoptosis
[6]; zVAD.fmk pre-incubation
  effect on cell death after combination treatment with D,L-methadone and cisplatin: strongly decreased cell death
[14]; 50 μmol/L zVAD.fmk, 0.1 μg/mL doxorubicin, 120 h and 144 h
  effect on apoptosis induced by cotreatment of D,L-methadone and doxorubicin: blocks apoptosis

## pertussis toxin [PTX]
[13]; 96 h
  effect on apoptosis rates of combination treatment with D,L-methadone and doxorubicin: strongly reduced the apoptosis rates
